{
  "source": "patent US11505533B2",
  "about": "“Metabolically stable N-acylaminooxadiazoles useful as antibacterial agents” (MICROBIOTIX, INC., priority 2017, dated 2022)",
  "data": [
    {"tested_on": "E. coli TolC(−)", "experiment": "TolC(−) MIC (NB)", "format": "cell-based", "conditions": "Escherichia coli, read-out: TolC(−) MIC (μM)(NB)", "units": {"MIC": "µM"}, "values": [
      {"smiles": "CC1CCCN(C(=O)Nc2nnc(-c3ccc(F)cc3)o2)C1", "note": "(stereo not drawn) [compound 4767]", "MIC": 11.1},
      {"smiles": "CC1CC(C)CN(C(=O)Nc2nnc(-c3ccc(F)cc3)o2)C1", "note": "(stereo not drawn) [compound 4768]", "MIC": 6.25},
      {"smiles": "O=C(Nc1nnc(C2COc3ccccc3O2)o1)c1ccc(Oc2ccccc2)nc1", "note": "(stereo not drawn) [compound 4770]", "MIC": 4.42},
      {"smiles": "O=C(Nc1nnc(-c2ccc(F)cc2)o1)N1CCCC(F)(F)CC1", "note": "[compound 4776]", "MIC": 12.5},
      {"smiles": "O=C(Nc1nnc(-c2ccc(F)cc2)o1)N1CCCc2ccccc2C1", "note": "[compound 4777]", "MIC": 17.7},
      {"smiles": "COC(=O)c1ccc(OC2CCN(C(=O)Nc3nnc(-c4ccc(F)cc4)o3)CC2)cc1", "note": "[compound 4778]", "MIC": 19.8},
      {"smiles": "COC(=O)c1ccc(CC2CCN(C(=O)Nc3nnc(-c4ccc(F)cc4)o3)CC2)cc1", "note": "[compound 4779]", "MIC": 12.5},
      {"smiles": "O=C(Nc1nnc(Cc2ccc(F)cc2)o1)c1ccc(Oc2ccccc2)nc1", "note": "[compound 4802]", "MIC": 6.25},
      {"smiles": "CC1=CCN(C(=O)Nc2nnc(C3CCCCC3)o2)CC1", "note": "[compound 4805]", "MIC": 25},
      {"smiles": "O=C(Nc1nnc(C2CCCCC2)o1)N1CC=C(C(F)(F)F)CC1", "note": "[compound 4806]", "MIC": 12.5},
      {"smiles": "COCC1=CCN(C(=O)Nc2nnc(-c3ccc(F)cc3)o2)CC1", "note": "[compound 4843]", "MIC": 25},
      {"smiles": "CC1(C)CCCN(C(=O)Nc2nnc(-c3ccc(F)cc3)o2)CC1", "note": "[compound 4922]", "MIC": 12.5},
      {"smiles": "O=C(Nc1nnc(C2CCCCC2)o1)c1ccc(OC2CCCCC2)nc1", "note": "[compound 4925]", "MIC": 1.56},
      {"smiles": "O=C(Nc1nnc(C2COc3ccccc3O2)o1)c1ccc(OC2CCCCC2)nc1", "note": "(stereo not drawn) [compound 4926]", "MIC": 1.56},
      {"smiles": "O=C(Nc1nnc(-c2ccc(F)cc2)o1)N1CCC(F)(F)C1", "note": "[compound 4930]", "MIC": 19.8},
      {"smiles": "O=C(Nc1nnc(-c2ccc(F)cc2)o1)N1CCC2(C1)CC2(F)F", "note": "(stereo not drawn) [compound 4931]", "MIC": 28.1},
      {"smiles": "O=C(Nc1nnc(-c2ccc(F)cc2)o1)N1CC(C(F)F)C2(CC2)C1", "note": "(stereo not drawn) [compound 4932]", "MIC": 17.7},
      {"smiles": "CCC1CCN(C(=O)Nc2nnc(-c3ccc(F)cc3)o2)CC1", "note": "[compound 4933]", "MIC": 6.25},
      {"smiles": "CCCC1CCN(C(=O)Nc2nnc(-c3ccc(F)cc3)o2)CC1", "note": "[compound 4934]", "MIC": 6.25},
      {"smiles": "O=C(Nc1nnc(-c2ccc(F)cc2)o1)N1CCC=CCC1", "note": "[compound 4935]", "MIC": 12.5},
      {"smiles": "O=C(Nc1nnc(-c2ccc(F)cc2)o1)N1CCc2ccccc2CC1", "note": "[compound 4936]", "MIC": 6.25},
      {"smiles": "CC(C)(C)C1CCCN(C(=O)Nc2nnc(-c3ccc(F)cc3)o2)CC1", "note": "(stereo not drawn) [compound 4937]", "MIC": 11.1},
      {"smiles": "CC(C)(C)C1CCN(C(=O)Nc2nnc(-c3ccc(F)cc3)o2)CC1", "note": "[compound 4938]", "MIC": 4.96},
      {"smiles": "O=C(Nc1nnc(-c2ccc(F)cc2)o1)N1CCC2(CCCC2)CC1", "note": "[compound 4939]", "MIC": 6.25},
      {"smiles": "O=C(Nc1nnc(-c2ccc(F)cc2)o1)N1CCc2sccc2C1", "note": "[compound 4940]", "MIC": 3.13},
      {"smiles": "CCOC1CCN(C(=O)Nc2nnc(-c3ccc(F)cc3)o2)CC1", "note": "[compound 4993]", "MIC": 44.5},
      {"smiles": "CC(C)OC1CCN(C(=O)Nc2nnc(-c3ccc(F)cc3)o2)CC1", "note": "[compound 4994]", "MIC": 44.5},
      {"smiles": "CC(C)(C)OC1CCN(C(=O)Nc2nnc(-c3ccc(F)cc3)o2)CC1", "note": "[compound 4995]", "MIC": 25},
      {"smiles": "O=C(Nc1nnc(-c2ccc3c(c2)CCC3)o1)N1CCC(Cl)=C(Cl)C1", "note": "[compound 5154]", "MIC": 1.75},
      {"smiles": "O=C(Nc1nnc(-c2ccc3c(c2)CCC3)o1)N1CC=C(C(F)(F)F)CC1", "note": "[compound 5155]", "MIC": 1.97},
      {"smiles": "O=C(Nc1nnc(-c2ccc(F)cc2)o1)N1CCC(c2ccccc2)CC1", "note": "[compound 5199]", "MIC": 5.57},
      {"smiles": "C[C@@H]1CCCN(C(=O)Nc2nnc(-c3ccc(F)cc3)o2)C1", "note": "[compound 5200]", "MIC": 12.5},
      {"smiles": "O=C(Nc1nnc(-c2ccc(F)cc2)o1)N1CCCC(O)C1", "note": "(stereo not drawn) [compound 5201]", "MIC": "> 100"},
      {"smiles": "Cc1cc(F)cc(C)c1-c1nnc(NC(=O)N2CCc3ccccc3C2)o1", "note": "[compound 5202]", "MIC": 7.02},
      {"smiles": "Cc1cc(F)cc(C)c1-c1nnc(NC(=O)N2CCC(Cl)=C(Cl)C2)o1", "note": "[compound 5203]", "MIC": 0.781},
      {"smiles": "Cc1cc(F)cc(C)c1-c1nnc(NC(=O)N2CC=C(C(F)(F)F)CC2)o1", "note": "[compound 5204]", "MIC": 4.96},
      {"smiles": "CC(C)C1CCCN(C(=O)Nc2nnc(-c3ccc(F)cc3)o2)C1", "note": "(stereo not drawn) [compound 5212]", "MIC": 7.02},
      {"smiles": "Cc1ccccc1-c1nnc(NC(=O)N2CCc3ccccc3C2)o1", "note": "[compound 5214]", "MIC": 7.02},
      {"smiles": "Cc1ccccc1-c1nnc(NC(=O)N2CCC(Cl)=C(Cl)C2)o1", "note": "[compound 5215]", "MIC": 1.56},
      {"smiles": "CC1=CCN(C(=O)Nc2nnc(-c3c(C)cc(F)cc3C)o2)CC1", "note": "[compound 5216]", "MIC": 12.5},
      {"smiles": "O=C(Nc1nnc(-c2ccc(N3CCCC3)cc2)o1)N1CCc2ccccc2C1", "note": "[compound 5222]", "MIC": 25},
      {"smiles": "O=C(Nc1nnc(-c2ccc(N3CCCC3)cc2)o1)N1CC=C(C(F)(F)F)CC1", "note": "[compound 5223]", "MIC": 11.1}
    ]}
  ]
}
